Test results reported in patent US11306063B2, “Heterocyclic naphthoquinones derivatives for use in the treatment of cancers including Cushing disease” (Commissariat a l'Energie Atomique et aux Energies …, priority 2016, dated 2022).

Assays:
[1] = Metabolic stability on human liver microsomes; type: in vitro ADME; conditions: 0.5 μM, up to 30 min; for cofactors (CYP)-mediated metabolism, human: with cofactors; for metabolism in the absence of cofactors, human: without cofactors
Protocol: Each compound was incubated either with cofactors (n=2) or without cofactors (n=1). Positive controls were: Diclofenac, Midazolam and Amitriptyline.

HCT116 cells = experiment: Cytotoxicity assay (PrestoBlue cell viability), HCT116; type: cell-based; conditions: Homo sapiens, HCT-116; 48 hours treatment
Protocol: Messa, Messa DX5, HCT116, HEK-293, PC-3, LNCaP, HCC827 and H1975 cell lines are issued from the American Type Culture Collection (ATCC).
Messa, Messa DX5 and HCT116 were maintained in McCoy's supplemented with 10% fetal bovine serum, and 1% penicillin/streptomycin. PC-3, LNCaP cells were maintained in RPMI medium supplemented with 10% fetal bovine serum, and 1% penicilin/streptomycin and in the case of Messa DX5: 500 nM Doxorubicin was added to maintain selection pressure. HEK293 were maintained in DMEM medium supplemented with 10% fetal bovine serum, and 1% penicillin/streptomycin. Cells were maintained at 37° C. with 5% CO2, 95% air, and humid atmosphere. In the case of hormonal dependent LNCaP cells, 2 μM DiHydroTestosterone (DHT) was added or not—depending on the type of biological assay—for the same incubation period as compounds.
(§1) For cytotoxicity assays, cells were seeded in 96-well microplates 24 hours before the addition of increasing concentrations of each compound in the culture medium. Cell viability was analyzed 48 hours following addition of each compound through the monitoring of mitochondrial […] activity using PrestoBlue® Cell Viability Reagent (Invitrogen; #A-13261). Paclitaxel was used as a control which is cytotoxic on various cancerous cells although not on chemoresistant MESSA DX5 lineage.

[2] = system: Gefitinib-resistant clone H1975; experiment: Cell growth inhibition and cell death induction (Incucyte), H1975; type: cell-based, human; conditions: 72 hours, FIG. 12A,B
Excerpt: (§2) FIG. 12: The cell growth inhibition and cell death induction of non-small cell lung cancers (NSCLC), HCC827 cells and derivative Gefitinib-resistant clone H1975 (FIG. 12 A,B) and of PC-3 (FIG. 12 C,D) and LnCAP (FIG. 12 E,F) were monitored using Incucyte microscope. Histogram represent in A,C,E: the final cell area relative to the total well area in (%) and in B,D,F: the fluorescent area in μm2. Error bars indicate standard deviation between 6 technical replicates.
(§3) The cell growth inhibition and cell death induction of non-small cell lung cancers (NSCLC), HCC827 cells and derivative Gefitinib-resistant clone H1975 were monitored during a period of 72 hours using Incucyte microscope and dedicated programs allowing to monitor cell confluency (i.e.: cell surface area relative to total well surface) and cell death induction by adding Propidium Iodide (PI) at 1 μg/ml (Sigma Aldrich #P4864) in the culture medium.

LNCaP cells spheroids [3] = experiment: Cell migration out of 3D spheroids; type: cell-based, human; conditions: 2 μM and 5 μM; 1 to 7 days; FIG. 3
Protocol: In vitro migration out of the spheroid was performed using a 96-well tissue culture plate (Cell Culture Microplate, 96 wells, Flat-BOTTOM, CellStar #655090). 100 μL (72 h hours old+24 h drug treatment spheroids) were placed in corresponding well of the new flat microplate, and daily observed in bright field with a Zeiss Axio Observer microscope. Each condition was made in six replicates. The migration area was measured with the tools of the AxioObserver software.
To this end, 3-days old spheroids are placed in a new flat-well microplate and daily observed in bright field.

HCC827 cells = experiment: Cell growth inhibition and cell death induction (Incucyte), HCC827; type: cell-based, human; conditions: 72 hours, FIG. 12A,B
Excerpt: as §2, §3

LNCaP cells spheroids [4] = experiment: Cell death in 3D spheroids (PI/Hoechst, high content analysis); type: cell-based, human; conditions: 1 to 3 days, increasing concentration, FIG. 2C
Protocol: Spheroids were then stained with Hoechst and Propidium Iodure (PI). The area of each staining was calculated via automated imaging. Histograms represent the medium value of the PI/Hoechst areas ratio calculated on 3 to 6 independent spheroids. Error bars indicate the standard deviation between technical replicates. One out of three experiments is presented.
For 3D cell culture (spheroids), the LNCaP-FGC (fast growing colony) cell line (ATCC #CRL1740) was used. This cell line derives from the LNCaP cell line (Human Prostatic Carcinoma) which shares all the main characteristics, including its androgen sensitivity, described for the parental line and HCT116 (ATCC #CCL 247) (Human Colorectal Carcinoma) cell lines. […]
An automated imaging protocol was designed to monitor the induction of cell death in the spheroids by high content analysis methods (HCA). 3 hours before reading, cells were labeled with vital Hoechst (400 ng/ml) (Thermo Fischer Scientific #33342) and Propidium Iodide (PI) at 1 μg/ml (Sigma Aldrich #P4864) as markers of cell nuclei and cell death respectively. Images of PI and Hoechst fluorescence were acquired using the automated microscope ArrayScan^VTI (ThermoScientific) and 5 times magnification. […]

[5] = system: EGFR and Met in HEK293T cells; experiment: Protein expression by immunoblot, HEK293T (Flag-USP8-S680A); type: cell-based, human; conditions: FIG. 11
Protocol: One representative experiment out of two is presented.
Cells were treated by either DMSO (0.5%) or increasing doses of the selected molecules from 1 μM to 10 μM over 6 to 24 hours as indicated. […] Tubulin was detected using anti α-tubulin primary antibody (in-house: the polyclonal Glu-tubulin antibody (L4) is available commercially from Abcys (Paris, France)). HRP-coupled anti-rabbit (#A6154) and anti-mouse (#A4416) secondary antibodies were purchased from Sigma. HRP activity was detected through HRP chemoluminescence detection reagent (Millipore, #WBLUF0100). […] Positive control was Epotoside at 50 μM or 100 μM, a known drug inducing cancerous cell death by apoptosis.

[6] = system: all cancerous cells tested; experiment: Cytotoxicity assay, summary over all cancerous cells tested; type: cell-based; conditions: Homo sapiens; 48 h treatment; read-out: EC50 of cell death, range over all cancerous cells tested
Protocol: as §1

Row | Structure (SMILES) | cofactors (CYP)-mediated metabolism, human [1] | metabolism in the absence of cofactors, human [1] | EC50 (HCT116 cells) [nM] | cell growth inhibition and cell death induction, H1975 [2] | prevention of cell migration out of the spheroids (LNCaP cells spheroids [3]) | cell growth inhibition and cell death induction, HCC827 (HCC827 cells) | cell death in spheroids (PI area over Hoechst area) (LNCaP cells spheroids [4]) | EGFR levels induced by USP8-S680A, HEK293T ([5]; 6 h) | Met degradation, HEK293T ([5]; 6 hours, dose-dependent) | EC50 [6] [nM]
1 | CCCCS(=O)(=O)Cc1nc2c(nc1CS(=O)(=O)CCCC)C(=O)c1ccccc1C2=O [PCR6236] | low | No metabolism was observed | 1300 | inhibit cell growth and induce cell death in a dose dependent manner | strong capacity | inhibit cell growth and induce cell death in a dose dependent manner | significant induction of a tumorous cells death | markedly reduced EGFR levels | induced Met degradation | 1000 to 3500
2 | CCCCS(=O)(=O)Cc1nc2c(o1)C(=O)c1ccccc1C2=O [PCR9301] | not or poorly metabolized | No metabolism was observed | 1700 | inhibit cell growth and induce cell death in a dose dependent manner | – | inhibit cell growth and induce cell death in a dose dependent manner | to an ever higher extend | – | – | 1000 to 3500
